Each structure is given as a SMILES string.

Assay [1] has as its target T1, U46619 stimulated platelet aggregation (Homo sapiens, UniProt P21731).
T1 construct: human, citrated, platelet-rich plasma; endogenous in cells; host or cells: human platelets in citrated platelet-rich plasma
T1 sequence (P21731 1-343): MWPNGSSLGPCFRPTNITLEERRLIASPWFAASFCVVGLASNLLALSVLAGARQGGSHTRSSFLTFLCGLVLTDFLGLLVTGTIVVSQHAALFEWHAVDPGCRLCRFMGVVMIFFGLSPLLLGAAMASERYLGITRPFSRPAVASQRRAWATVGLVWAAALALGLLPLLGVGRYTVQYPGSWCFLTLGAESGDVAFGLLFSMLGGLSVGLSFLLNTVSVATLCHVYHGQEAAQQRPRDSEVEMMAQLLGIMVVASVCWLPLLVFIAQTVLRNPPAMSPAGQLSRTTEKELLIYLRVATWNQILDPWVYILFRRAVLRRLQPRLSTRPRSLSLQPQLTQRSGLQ
The assay can be described thus: Test (b) blood platelet aggregation test (human citrated platelet-rich plasma, U46619). The assay is classed as cell-based. The settings on record: U46619 stimulated aggregation of human platelets; averaged over several concentrations. The source says: (b) A blood platelet aggregation test based on that described by Born (Nature, 1962, 194, 927-929) and involving:
(i) aggregating human, citrated, platelet-rich plasma by addition of the TXA2 mimetic agent U46619 so that a dose-response curve is generated,
(ii) generating a dose-response curve for U46619 stimulated platelet aggregation in the presence of decreasing amounts of test compound (generally in the range 10^-5 M to 10^-10 M); and
(iii) calculating a KB value indicating potency of TXA2 antagonism for the test compound, averaged over several concentrations, from the calculated 50% response value for U46619 aggregation in the presence and absence of test compound; and […]

Assay [2] deals with U46619 induced bronchoconstriction. The experiment in a line: Test (c) bronchoconstriction test, Konzett-Rossler anaesthetised guinea-pig model. It is filed as in vivo. The settings on record: 2 hours after oral dosing at 0.05 mg/kg. The source says:
(c) a bronchoconstriction test involving measuring the inhibition by a test compound of the broncho-constriction induced in the Konzett-Rossler, anaesthetised guinea-pig model (as modified by Collier and James, Brit.J.Pharmacol., 1967, 30, 283-307) by intravenous administration of the TXA2 mimetic agent, U46619 and involving:
(i) obtaining a cumulative dose-response curve to U46619 induced bronchoconstriction by intravenous administration of constant volumes of increasing concentrations of U46619 (0.2-4 μg/kg) in physiological saline solution and expressing bronchoconstriction as the maximum of that theoretically obtainable with no air flow to the test animal;
(ii) generating a cumulative dose-response curve to U46619 induced bronchoconstriction at 30 minute intervals for 3 hours after oral dosing of test compound; and
(iii) calculating a dose-ratio for the test compound (that is the ratio of concentration of U46619 required to cause 50% bronchoconstriction in the presence and absence of test compound) indicating the potency of TXA2 antagonism.

The subject of assay [3] is TXA2. The experiment in a line: Test (a) rabbit aortal strip model, U46619 as agonist. The assay is classed as cell-based. The settings on record: ±0.05. Here is the method:
(§1) As stated earlier, the acids of formula I are antagonists of one or more of the actions of TXA2, for example certain of its actions on blood platelets, the vasculature and/or the lung.
(a) The rabbit aortal strip model devised by Piper and Vane (Nature, 1969, 223, 29-35) using as agonist a freshly prepared sample of TXA2, generated by addition of arachidonic acid (25 μg) to citrated, platelet rich rabbit plasma (250 μl) and allowing the mixture to aggregate fully over 90 seconds before use; alternatively the TXA2 mimetic agent known as U46619 (described by R L Jones et alia in "Chemistry, Biochemistry and Pharmacological Activity of Prostanoids" edited by S M Roberts and F Scheinmann, at page 211; Pergamon Press, 1979) may be used as the agonist;

Assay [4] relates to TXA2. The experiment in a line: TXA2 antagonism in general (statement in words).
From the text: as §1

The subject of assay [5] is hypertensive effect of U46619. The experiment in a line: Test (d) hypertensive effect of U46619 in anaesthetised rats. The assay is classed as in vivo, rat (Alderley Park strain). Here is the method: (d) Male rats (Alderley Park strain) are anaesthetised with sodium pentobarbital and blood pressure is monitored at the carotid artery. The TXA2 mimetic agent is administered intravenously via the jugular vein and an ED50 (dose necessary to produce 50% of the maximum hypertensive effect) is established (n=3). [The ED50 for U46619 is approximately 5 μg/kg.] A test compound is then administered either intravenously (via the jugular vein) or orally (via a cannula) directly into the stomach and the animal challenged with an ED50 dose of U46619, five minutes after dosing with test compound and then successively every ten minutes until the hypertensive effect of U46619 is no longer blocked.

Compound `O=C(O)CC/C=C\C[C@H]1CO[C@@H](c2ccc([N+](=O)[O-])s2)O[C@H]1c1ccccc1O` (relative stereo) [Example 4] yielded a Kb in assay [1] of 0.00754 µM. Besides, the dose ratio in assay [2] is above 100. Besides, the “pA2 (U46619)” value in assay [3] is 8.3. Besides, the “antagonism of one or more of the actions of TXA2 (in words)” value (“antagonism” for short) in assay [4] is reported as “especially potent antagonists”. Moreover, the “duration of inhibition of the hypertensive effect of U46619” value in assay [5] (about 80% inhibition, oral dose of 0.05 mg/kg) is reported as “more than 1 hour”. In assay [5] (oral dose of 0.05 mg/kg, for more than 1 hour), the “inhibition of the hypertensive effect of U46619” value is “about 80%”.
With `CCCCC[C@H](O)/C=C/[C@@H]1[C@@H](C/C=C\CCCC(=O)O)[C@H]2CO[C@@H]1C2` [Example U46619, reference compound], in assay [5] (Rattus norvegicus, intravenous via the jugular vein, n=3, read-out: ED50 (dose necessary to produce 50% of the maximum hypertensive effect)), the ED50 (in general, the dose at which the effect has come halfway, by size or by number of responders) is around 5 µg/kg.
`O=C(O)CC/C=C\C[C@H]1CO[C@@H](c2ccsc2)O[C@H]1c1ccccc1O` (relative stereo) [Example 8, 4(Z)-6-([2,4,5-cis-]-4-o-hydroxy-phenyl-2-[3-thienyl]-1,3-dioxan-5-yl)hexenoic acid] registered a Kb in assay [1] of 0.0138 µM. In addition, the dose ratio in assay [2] is on record as 3. The “pA2 (U46619)” value in assay [3] was determined as 7.6. Besides, the “antagonism” value in assay [4] is reported as “especially potent antagonists”.
As to `N#Cc1ccc([C@@H]2OC[C@H](C/C=C\CCC(=O)O)[C@H](c3ccccc3O)O2)s1` (relative stereo) [Example 9, 4(2)-6([2,4,5-cis]-2-[5-cyano-2-thienyl]-4-o-hydroxphenyl-1,2-dioxan-5-yl)hexenoic acid], in assay [4], the “antagonism” value was “especially potent antagonists”.

The values are drawn from patent US4822815A, “Dioxane hexenoic acids” (Imperial Chemical Industries PLC, priority 1985, dated 1989).
